{"source": "paper PMC8170916", "about": "“Sublingual AKBA Exerts Antidepressant Effects in the Aβ-Treated Mouse Model” (Biomolecules, 2021)", "key": {"CD11b": {"tested_on": "CD11b", "assay": "Western blotting quantification of CD11b in PFC and HIPP", "type": "in vivo", "details": "mice 7 days after icv Aβ 4 µM, sublingual AKBA 5 mg/kg 30 min earlier", "experimental": "(§1) All behavioral experiments were conducted at 5 or 30 min after sublingual administrations of AKBA or vehicle in either SHAM or Aβ-treated mice. Based upon behavioral outcomes observed, neurochemical and biochemical quantifications were performed 30 min after AKBA or vehicle administration in either SHAM or Aβ-treated mice.\n(§2) Anesthetized animals were sacrificed by cervical dislocation. Brains were immediately removed and kept on ice for dissection of PFC and HIPP, according to the atlas of Paxinos and Franklin. Tissues were frozen and stored at −80 °C until analyses were carried out. Samples (PFC and HIPP) were homogenized (1:10 w/v) at 4 °C using a PBS buffer containing a 1:100 protease and phosphatase inhibitor cocktail (HALT inhibitors, Thermo Fisher Scientific, Cleveland, OH, USA) for biochemical analyses or perchloric acid 0.1 M for neurochemical analyses. Homogenates were centrifuged at 13,000× g at 4 °C for 20 min, and supernatants were used for further determinations.\nThe total amount of proteins was measured in homogenates by using Pierce BCA Assay (Thermo Fisher Scientific, Cleveland, OH, USA). Forty µg of the total lysate protein were separated by SDS-PAGE precast gels (Bio-Rad Laboratories Inc., Segrate (MI), Italy), transferred onto nitrocellulose membranes (Bio-Rad Laboratories Inc, Segrate (MI), Italy) and then blocked for 1 h in blocking buffer (SigmaAldrich, Milan, Italy). Rabbit polyclonal antibody against GFAP (Dako Products, USA; 1:2000), rabbit monoclonal antibody against CD11b (Abcam, Cambridge, MA, USA; ab133357, 1:1000) and mouse monoclonal antibody against NF-kB p65 (Santa Cruz Biotechnology, Dallas, Texas, USA; 1:2000) were used to incubate the membranes overnight at 4 °C. After HRP-conjugated specific antibody incubation, ECL reagent (Bio-Rad Laboratories Inc., Segrate (MI), Italy) was added to the immune complex and chemiluminescence was detected by ChemiDoc MP system (Bio-Rad Laboratories Inc., Segrate (MI), Italy). Optical densities of the bands were measured using ImageJ software (http://rsb.info.nih.gov/ij/ accessed on 15 March 2021) and normalized against bands relative to β-actin (1:5000, Abcam, Cambridge, UK)."}, "mice": {"tested_on": "mice", "assay": "Open field test (locomotion)", "type": "in vivo", "details": "30 min after AKBA or vehicle administration", "experimental": "Mice were placed in an open field arena and allowed to explore for 30 min [25]. After each trial, the arena floor was cleaned with 70% ethanol to avoid inter-assay bias. The movements of mice were video recorded and analyzed by ANY-maze tracking software (Ugo Basile-Varese, Gemonio, Italy). Locomotion was evaluated through total crossing measurements."}, "5-LOX": {"tested_on": "5-LOX", "set-up": "method as in PMID 9760176", "details": "cited from earlier work"}, "glutamate (GLU)": {"tested_on": "glutamate (GLU)", "assay": "Glutamate quantification in PFC and HIPP by HPLC with fluorescence detection", "type": "in vivo", "details": "PFC, mice 7 days after icv Aβ 4 µM; sublingual AKBA 5 mg/kg 30 min earlier", "experimental": "as §1, §2\n5-HT, noradrenaline (NA), and KYN levels were measured in the PFC and HIPP of mice by HPLC coupled with an electrochemical detector (Ultimate ECD, Thermo Scientific Dionex, Milan, Italy) as already reported. Separation was performed by a LC18 reverse phase column (Kinetex, 150 mm × 3.0 mm, ODS 5 μm; Phenomenex, Castel Maggiore-Bologna, Italy). The detection was accomplished by a thin layer amperometric cell (Thermo Scientific Dionex, Milan, Italy) with a 5 mm diameter glassy carbon electrode at a working potential of 400 mV (5-HT and NA) or 0.750 mV (KYN) vs. Pd. The mobile phase consisted of an aqueous buffer containing 75 mM NaH2PO4, 1.7 mM octane sulfonic acid, 0.3 mM EDTA, and acetonitrile 10%, buffered at pH 3.0. […] GLU concentrations were determined by HPLC coupled with fluorescence detection (emission length 460 nm; excitation length 340 nm), as previously published. […] Results were analyzed by Borwin software (version 1.50; Jasco, Cremella, Italy) and the amino acid concentration was expressed as µM. All data were normalized for total area weight and were expressed as concentration/mg of tissue."}, "APPswe/PS1dE9": {"tested_on": "APPswe/PS1dE9", "set-up": "method as in PMID 32109514", "details": "AD genetic model; cited from earlier work"}, "[1]": {"set-up": "method as in PMID 21553931", "details": "cited from earlier work"}}}
{"smiles": "CC(=O)O[C@@H]1CC[C@@]2(C)[C@@H](CC[C@]3(C)[C@@H]2C(=O)C=C2[C@@H]4[C@@H](C)[C@H](C)CC[C@]4(C)CC[C@]23C)[C@@]1(C)C(=O)O", "note": "[AKBA, 3-O-acetyl-11-keto-β-boswellic acid]", "values": [{"measurement": "CD11b levels in the HIPP (optical density normalized to actin)", "setting": "CD11b; HIPP", "result": "not able to modify such an outcome"}, {"measurement": "CD11b content in the PFC (optical density normalized to actin)", "setting": "CD11b; PFC", "result": "no differences were found among experimental groups"}, {"measurement": "Locomotion in the open field test", "setting": "mice", "result": "no difference"}, {"measurement": "5-LOX inhibition", "setting": "5-LOX", "result": "5-LOX inhibitor"}, {"measurement": "GLU levels in the PFC", "setting": "glutamate (GLU)", "result": "restored those levels to control"}, {"measurement": "Cerebral amyloid beta (Aβ) production and plaque burden in APPswe/PS1dE9", "setting": "APPswe/PS1dE9", "result": "decrease cerebral amyloid beta (Aβ) production and plaque burden"}, {"measurement": "Cognitive impairments in APPswe/PS1dE9", "setting": "APPswe/PS1dE9", "result": "able to reverse cognitive impairments"}, {"measurement": "Oral bioavailability", "setting": "[1]", "result": "low oral bioavailability"}]}
